Test results from patent publication US20250129078A1, “ERBB2 INHIBITORS” (Cogent Biosciences, Inc., priority 2023, published 2025).

Experiments:
[1] = molecular target: EGFR WT (Homo sapiens (Human), UniProt P00533); test: ErbB enzyme assay (CisBio HTRF-KinEASE-TK), EGFR WT; assay type: biochemical; conditions: ATP at Km (25 μM), 1 h incubation
Method in brief: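 Compounds, serially diluted three-fold, were incubated with enzyme for 1 h at ambient temperature. Detection reagents were then added for a further hour, and the 655/620 nm HTRF ratio was normalised to uninhibited and pre-quenched controls. IC50 was fitted with a four-parameter logistic model.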

[2] = molecular target: ErbB2 V777L (Homo sapiens (Human), UniProt P04626, V777L); test: ErbB enzyme assay (CisBio HTRF-KinEASE-TK), ErbB2 V777L; assay type: biochemical
Method in brief: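 HTRF KinEASE-TK tyrosine-kinase read-out of substrate phosphorylation after a final 1 h at ambient temperature, from the 655/620 nm emission ratio.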

[3] = molecular target: EGFR wild type (Homo sapiens (Human), UniProt P00533); test: ErbB cellular phosphorylation assay (phospho-EGFR ELISA), HEK-293 cells expressing EGFR wild type, EGF stimulated; assay type: cell-based; conditions: 1 h treatment
Method: (§1) HEK-293 cells were engineered to constitutively express ErbB2 mutant L755S or EGFR wild type (constructs obtained from GenScript, Piscataway, NJ). Cells were seeded in poly-D-lysine coated, 96-well plates at a density of 50,000 cells/well in complete medium (DMEM supplemented with 10% fetal bovine serum and G418) and incubated for 24 h at 37° C., 5% CO2 prior to treatment. Cells were treated with compound using three-fold dilutions at final concentrations ranging from […] for 1 h at 37° C., 5% CO2. EGFR-WT cells were stimulated with 500 ng/mL recombinant human EGF (R&D Systems, 236-EG) for an additional 5 min. After compound incubation, medium was removed from the plate, and cells were lysed in buffer containing protease and phosphatase inhibitors ([…]). Cell lysates were analyzed by enzyme-linked immunosorbent assay (ELISA). The ELISAs were performed to measure phosphorylated ErbB2 or phosphorylated EGFR levels, respectively (R&D Systems, DYC-1768, Human Phospho-ErbB2 DuoSet ELISA; DYC1095, Human Phospho-EGFR DuoSet IC ELISA) according to the manufacturer's instructions. Absorbance was measured at 450 nm using a BioTek Cytation 5 plate reader (Agilent, Santa Clara, CA) and IC50 values were calculated using a 4-parameter fit.

[4] = molecular target: ErbB2 mutant L755S (Homo sapiens (Human), UniProt P04626, L755S); test: ErbB cellular phosphorylation assay (phospho-ErbB2 ELISA), HEK-293 cells expressing ErbB2 L755S; assay type: cell-based; conditions: 1 h treatment
Method: as §1, with “Cells” for “HEK-293 cells were engineered to constitutively express ErbB2 mutant L755S or EGFR wild type (constructs obtained from GenScript, Piscataway, NJ). Cells”

[5] = Blood brain barrier penetration assay in CD-1 mice (short oral absorption model, Kpuu brain); assay type: in vivo; conditions: mouse, brain and plasma, male CD-1 mice, 1 h post-dose, Kpuu brain = conc (brain)/conc (plasma) x (fu brain/fu plasma)
Method: In vitro plasma and brain binding assays were carried out using the equilibrium dialysis method. EDTA-anticoagulated plasma and diluted brain homogenate (1:3 with DPBS pH 7.4) were spiked with 2 μM test compound and dialyzed against an equal volume of 100 μL 100 mM sodium phosphate buffer (pH 7.4) at 37° C. for 4 h in a slowly rotated plate. At the end of the dialysis 50 μL aliquots from the buffer side and matrix side of the dialysis device were taken into new 96-well plates. An equal volume of opposite blank matrix (buffer or matrix) in each sample was added to reach a final volume of 100 μL. All samples were processed by protein precipitation for LC/MS/MS analysis. Unbound fraction (fu) of test compound was calculated by the ratio of buffer side response to the brain homogenate/plasma side response, and unbound fraction (fu,pl and fu,br) of test compound in non-diluted plasma and brain tissue were calculated from measured fu in homogenate and plasma with the following equation: fu,pl or fu,br=1/D/((1/(F/T)-1)+1/D). F is the free compound concentration as determined by the calculated concentration on the buffer side of the membrane and T is the total compound concentration as determined by the calculated concentration on the matrix side of the membrane. D is the dilution factor (D equals 1 for plasma, and 4 for brain).
A short oral absorption model is an in-vivo screening model to identify brain penetration of a compound. Three male CD-1 mice were orally dosed with an appropriate vehicle. At the 1 h timepoint post-dose, blood samples were collected via cardiac puncture, placed into EDTA anti-coagulated tubes, and spiked with 1% 1 mM quinidine (aq). The samples were placed on wet ice until centrifugation at 4000×g for 10 min. Brain tissue was rinsed with saline and the liquid was drained. The brains were weighed and transferred to tubes for homogenization. Each tube contained 1 g tissue, 9 mL buffer (1:2 v/v MeOH:15 mM PBS), and a spike of 1% 1 mM quinidine (aq). All samples were stored at −80° C. prior to LC/MS/MS analysis. Standards were prepared by spiking blank plasma and brain homogenate. Aliquots (10 μL) of sample, calibration standard, quality control, dilution quality control, single blank, and double blank were added to the 96-well plate respectively. Homogenized brain tissue along with plasma samples were precipitated by adding 190 μL cold MeCN containing internal standard (the double blank sample was quenched with 190 L MeCN). The mixture was vortex-mixed for 5 min at 1000 rpm and centrifuged for 10 min at 3220×g, 4° C. […] The free fraction of test compound in biological matrix was determined by using in vitro plasma and brain tissue free fraction. Kpuu brain was calculated by the equation: Kpuu brain=cone (brain)/conc (plasma)×(fu brain/fu plasma).

EGFR wild type, sequence (P00533 25-1210): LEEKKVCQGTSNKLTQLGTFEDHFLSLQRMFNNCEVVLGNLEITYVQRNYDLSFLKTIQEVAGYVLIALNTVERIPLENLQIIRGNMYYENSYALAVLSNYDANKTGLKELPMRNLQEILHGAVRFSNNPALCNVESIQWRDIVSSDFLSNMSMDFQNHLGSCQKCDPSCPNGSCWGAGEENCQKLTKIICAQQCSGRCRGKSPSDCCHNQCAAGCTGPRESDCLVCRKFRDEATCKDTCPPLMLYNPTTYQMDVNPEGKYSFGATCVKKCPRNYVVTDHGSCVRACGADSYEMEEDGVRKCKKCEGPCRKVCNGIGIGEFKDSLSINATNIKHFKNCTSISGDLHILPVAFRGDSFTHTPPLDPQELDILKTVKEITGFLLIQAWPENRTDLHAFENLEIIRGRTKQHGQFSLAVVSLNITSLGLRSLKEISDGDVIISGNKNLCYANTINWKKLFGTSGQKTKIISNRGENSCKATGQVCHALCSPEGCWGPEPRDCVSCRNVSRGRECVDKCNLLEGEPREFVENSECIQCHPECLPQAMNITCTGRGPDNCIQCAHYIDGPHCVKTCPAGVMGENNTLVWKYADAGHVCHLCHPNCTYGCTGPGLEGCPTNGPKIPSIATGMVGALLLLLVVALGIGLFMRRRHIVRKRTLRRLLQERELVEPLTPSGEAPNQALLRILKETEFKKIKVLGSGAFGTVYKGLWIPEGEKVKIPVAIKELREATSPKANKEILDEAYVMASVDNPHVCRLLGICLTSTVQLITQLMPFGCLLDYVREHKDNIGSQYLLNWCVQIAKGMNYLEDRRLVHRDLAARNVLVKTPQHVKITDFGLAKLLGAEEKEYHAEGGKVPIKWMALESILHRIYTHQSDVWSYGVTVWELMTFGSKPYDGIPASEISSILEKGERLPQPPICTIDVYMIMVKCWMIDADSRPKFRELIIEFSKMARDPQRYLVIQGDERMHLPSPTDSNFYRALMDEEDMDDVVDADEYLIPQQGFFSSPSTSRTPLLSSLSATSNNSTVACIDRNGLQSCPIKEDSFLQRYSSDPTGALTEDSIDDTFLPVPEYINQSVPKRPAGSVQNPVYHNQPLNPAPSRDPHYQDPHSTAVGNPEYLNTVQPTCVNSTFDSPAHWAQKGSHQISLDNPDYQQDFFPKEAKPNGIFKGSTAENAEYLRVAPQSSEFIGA
EGFR WT, sequence (P00533 25-1210): as above
ErbB2 V777L, sequence (P04626 23-1255 V777L): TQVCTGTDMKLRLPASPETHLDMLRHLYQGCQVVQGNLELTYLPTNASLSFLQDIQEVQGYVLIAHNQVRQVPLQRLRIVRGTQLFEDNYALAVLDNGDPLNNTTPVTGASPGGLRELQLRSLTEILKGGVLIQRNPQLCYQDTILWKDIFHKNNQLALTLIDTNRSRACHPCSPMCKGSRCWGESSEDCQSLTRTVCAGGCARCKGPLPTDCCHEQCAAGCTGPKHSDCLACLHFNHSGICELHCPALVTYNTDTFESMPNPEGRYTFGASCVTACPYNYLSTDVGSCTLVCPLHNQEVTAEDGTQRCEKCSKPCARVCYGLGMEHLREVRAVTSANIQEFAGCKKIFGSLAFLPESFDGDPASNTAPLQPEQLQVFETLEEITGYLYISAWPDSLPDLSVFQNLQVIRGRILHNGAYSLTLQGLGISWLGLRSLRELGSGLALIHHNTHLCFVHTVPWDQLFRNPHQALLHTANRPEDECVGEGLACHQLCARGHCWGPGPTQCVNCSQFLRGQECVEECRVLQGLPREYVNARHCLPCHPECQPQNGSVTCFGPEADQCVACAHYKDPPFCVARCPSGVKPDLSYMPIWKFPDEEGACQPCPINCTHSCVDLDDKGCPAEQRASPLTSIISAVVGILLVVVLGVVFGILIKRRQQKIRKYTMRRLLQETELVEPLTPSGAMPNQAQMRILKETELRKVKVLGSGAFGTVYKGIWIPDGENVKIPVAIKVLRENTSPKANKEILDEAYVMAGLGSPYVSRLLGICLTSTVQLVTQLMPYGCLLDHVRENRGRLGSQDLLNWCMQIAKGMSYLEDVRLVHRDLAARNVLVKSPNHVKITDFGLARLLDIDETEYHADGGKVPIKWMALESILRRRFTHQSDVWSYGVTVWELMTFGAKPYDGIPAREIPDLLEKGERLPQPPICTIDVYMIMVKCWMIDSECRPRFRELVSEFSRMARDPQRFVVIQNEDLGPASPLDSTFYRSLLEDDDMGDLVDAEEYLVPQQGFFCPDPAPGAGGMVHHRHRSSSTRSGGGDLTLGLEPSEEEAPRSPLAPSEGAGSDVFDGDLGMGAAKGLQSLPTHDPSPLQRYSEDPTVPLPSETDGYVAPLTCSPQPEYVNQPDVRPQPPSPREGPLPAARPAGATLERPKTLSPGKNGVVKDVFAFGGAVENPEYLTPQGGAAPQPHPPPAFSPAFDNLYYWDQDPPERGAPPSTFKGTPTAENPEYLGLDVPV
ErbB2 mutant L755S, sequence (P04626 23-1255 L755S): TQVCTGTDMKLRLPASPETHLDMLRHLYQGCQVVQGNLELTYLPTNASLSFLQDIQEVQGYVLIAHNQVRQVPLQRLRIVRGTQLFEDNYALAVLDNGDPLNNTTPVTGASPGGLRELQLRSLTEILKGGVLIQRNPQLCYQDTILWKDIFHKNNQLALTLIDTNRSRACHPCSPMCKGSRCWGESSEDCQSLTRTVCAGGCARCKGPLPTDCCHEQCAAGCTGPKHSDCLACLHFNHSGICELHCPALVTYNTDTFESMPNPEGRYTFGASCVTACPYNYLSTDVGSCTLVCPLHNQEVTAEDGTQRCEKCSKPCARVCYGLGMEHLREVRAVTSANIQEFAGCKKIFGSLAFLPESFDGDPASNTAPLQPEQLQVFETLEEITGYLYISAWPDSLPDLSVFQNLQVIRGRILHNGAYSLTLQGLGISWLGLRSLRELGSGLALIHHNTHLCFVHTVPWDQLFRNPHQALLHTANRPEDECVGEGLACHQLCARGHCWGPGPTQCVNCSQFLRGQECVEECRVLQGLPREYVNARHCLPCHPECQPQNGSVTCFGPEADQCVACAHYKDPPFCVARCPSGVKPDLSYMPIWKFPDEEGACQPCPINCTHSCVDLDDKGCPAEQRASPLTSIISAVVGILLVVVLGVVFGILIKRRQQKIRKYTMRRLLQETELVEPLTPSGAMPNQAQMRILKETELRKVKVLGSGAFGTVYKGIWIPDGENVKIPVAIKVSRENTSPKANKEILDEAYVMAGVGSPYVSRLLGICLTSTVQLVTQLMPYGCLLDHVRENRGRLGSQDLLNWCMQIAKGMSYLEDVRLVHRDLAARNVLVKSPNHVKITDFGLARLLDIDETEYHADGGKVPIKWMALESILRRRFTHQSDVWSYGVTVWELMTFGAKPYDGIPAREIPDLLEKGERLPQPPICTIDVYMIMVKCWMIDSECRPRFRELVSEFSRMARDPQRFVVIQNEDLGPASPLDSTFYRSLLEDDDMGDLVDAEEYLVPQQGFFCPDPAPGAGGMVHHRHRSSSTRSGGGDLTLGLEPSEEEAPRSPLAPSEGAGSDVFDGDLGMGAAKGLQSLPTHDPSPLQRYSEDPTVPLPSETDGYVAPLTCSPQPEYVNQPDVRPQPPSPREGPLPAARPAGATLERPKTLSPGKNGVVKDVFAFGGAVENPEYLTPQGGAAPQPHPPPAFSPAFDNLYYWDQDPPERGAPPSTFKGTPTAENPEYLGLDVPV

IC50 [1] [nM]	IC50 [2] [nM]	IC50 [3] [nM]	IC50 [4] [nM]	Kp uu at 1 h [5]	Structure (SMILES)
≥ 1000	500 to 1000	≥ 5000	500 to 1000	–	C=CC(=O)N1CCC2(C1)CN(c1ncc3ncnc(Nc4ccc(Oc5ccc6c(c5)nnn6C)c(C)c4)c3n1)C2 [Compound 15, 1-(2-(8-((3-methyl-4-((1-methyl-1H-benzo[d][1,2,3]triazol-5-yl)oxy)phenyl)amino)pyrimido[5,4-d]pyrimidin-2-yl)-2,6-diazaspiro[3.4]octan-6-yl)prop-2-en-1-one]
500 to 1000	100 to 500	≥ 5000	100 to 500	–	C=CC(=O)N1CCN(c2ncc3ncnc(Nc4cc(C)c(Oc5ccc6c(c5)ncn6C(F)F)cc4OC)c3n2)C[C@H]1C [Compound 39, (R)-1-(4-(8-((4-((1-(difluoromethyl)-1H-benzo[d]imidazol-5-yl)oxy)-2-methoxy-5-methylphenyl)amino)pyrimido[5,4-d]pyrimidin-2-y1)-2-methylpiperazin-1-yl)prop-2-en-1-one]
100 to 500	–	–	–	0.04	C=CC(=O)N1CCN(c2ncc3ncnc(Nc4ccc(Oc5cnc6c(c5)ncn6C)c(C)c4)c3n2)CC1 [Compound 235, 1-(4-(8-((3-methyl-4-((3-methyl-3H-imidazo[4,5-b]pyridin-6-yl)oxy)phenyl)amino)pyrimido[5,4-d]pyrimidin-2-yl)piperazin-1-yl)prop-2-en-1-one]
< 50	100 to 500	≥ 5000	100 to 500	–	C=CC(=O)N1CCN(c2ncc3ncnc(Nc4ccc(Oc5cc(F)c6c(c5)nnn6C)c(C)c4F)c3n2)C[C@H]1C [Compound 49, (R)-1-(4-(8-((2-fluoro-4-((7-fluoro-1-methyl-1H-benzo[d][1,2,3]triazol-5-yl)oxy)-3-methylphenyl)amino)pyrimido[5,4-d]pyrimidin-2-yl)-2-methylpiperazin-1-yl)prop-2-en-1-one]
500 to 1000	100 to 500	≥ 5000	100 to 500	–	CC#CC(=O)N1CCN(c2ncc3ncnc(Nc4ccc(Oc5ccc6c(c5)nnn6C)c(C)c4)c3n2)CC1 [Compound 55, 1-(4-(8-((3-methyl-4-((1-methyl-1H-benzo[d][1,2,3]triazol-5-yl)oxy)phenyl)amino)pyrimido [5,4-d]pyrimidin-2-yl)piperazin-1-yl) but-2-yn-1-one]
–	50 to 100	≥ 5000	100 to 500	–	C=CC(=O)N1CCC(Sc2ncc3ncnc(Nc4ccc(Oc5ccc6c(c5)ncn6C)c(C)c4F)c3n2)CC1 [Compound 107, 1-(4-((8-((2-fluoro-3-methyl-4-((1-methyl-1H-benzo[d]imidazol-5-yl)oxy)phenyl)amino)pyrimido[5,4-d]pyrimidin-2-yl)thio)piperidin-1-yl)prop-2-en-1-one]
100 to 500	50 to 100	≥ 5000	< 100	–	C=CC(=O)N1C2CC1CN(c1ccc3ncnc(Nc4ccc(Oc5ccc6c(c5)nnn6C)c(C)c4)c3n1)C2 [Compound 93, 1-(3-(4-((3-methyl-4-((1-methyl-1H-benzo[d][1,2,3]triazol-5-yl)oxy)phenyl)amino)pyrido[3,2-d]pyrimidin-6-yl)-3,6-diazabicyclo[3.1.1]heptan-6-yl)prop-2-en-1-one]
100 to 500	100 to 500	≥ 5000	100 to 500	–	C=CC(=O)N1CCN(c2ncc3ncnc(Nc4ccc(Oc5ccn6ncnc6c5)c(C)c4F)c3c2F)CC1 [Compound 101, 1-(4-(4-((4-([1,2,4]triazolo[1,5-a]pyridin-7-yloxy)-2-fluoro-3-methylphenyl)amino)-5-fluoropyrido[3,4-d]pyrimidin-6-yl)piperazin-1-yl)prop-2-en-1-one]
< 50	50 to 100	≥ 5000	< 100	–	C=CC(=O)N1CCN(c2ncc3ncnc(Nc4ccc(Oc5cc(F)c6c(c5)nnn6C)c(C)c4F)c3n2)CC1 [Compound 33, 1-(4-(8-((2-fluoro-4-((7-fluoro-1-methyl-1H-benzo[d][1,2,3]triazol-5-yl)oxy)-3-methylphenyl)amino)pyrimido [5,4-d]pyrimidin-2-yl)piperazin-1-yl)prop-2-en-1-one]
500 to 1000	100 to 500	≥ 5000	100 to 500	–	C=CC(=O)N1CCN(c2ncc3ncnc(Nc4ccc(Oc5ccc6c(c5)nnn6C)c(C)c4)c3c2OC)CC1 [Compound 105]
100 to 500	50 to 100	≥ 5000	100 to 500	–	C=CC(=O)N1CCN(c2ncc3ncnc(Nc4ccc(Oc5ccc6c(c5)nnn6C)c(C)c4)c3n2)CC1(C)C [Compound 3, 1-(2,2-dimethyl-4-(8-((3-methyl-4-((1-methyl-1H-benzo[d][1,2,3]triazol-5-yl)oxy)phenyl)amino)pyrimido[5,4-d]pyrimidin-2-yl)piperazin-1-yl)prop-2-en-1-one]
–	–	–	–	0.04	C=CC(=O)N1CCN(c2ncc3ncnc(Nc4ccc(Oc5ccc6c(c5)ncn6C)c(C)c4)c3n2)CC1 [Analog of compound 5, reference compound]
< 50	< 50	–	–	0.12	C=CC(=O)N1CCN(c2ncc3ncnc(Nc4ccc(Oc5cc(F)c6c(c5)ncn6C)c(C)c4)c3n2)CC1 [Compound 64, 1-(4-(8-((4-((7-fluoro-1-methyl-1H-benzo[d]imidazol-5-yl)oxy)-3-methylphenyl)amino)pyrimido[5,4-d]pyrimidin-2-yl)piperazin-1-yl)prop-2-en-1-one]
100 to 500	–	–	–	0.22	C=CC(=O)N1CCN(c2ncc3ncnc(Nc4ccc(Oc5ccc6c(c5)nnn6C)c(C)c4)c3n2)CC1 [Compound 5, 1-(4-(8-((3-methyl-4-((1-methyl-1H-benzo[d][1,2,3]triazol-5-yl)oxy)phenyl)amino)pyrimido[5,4-d]pyrimidin-2-yl)piperazin-1-yl)prop-2-en-1-one]
